Measurements taken from US20220380375A1, “SUBSTITUTED AROMATIC FUSED RING DERIVATIVE AND COMPOSITION COMPRISING SAME, AND USE THEREOF” (Shenzhen TargetRx, Inc., priority 2019, published 2022).

Tests used:
Assay type in all cases: cell-based
[1] = molecular target: T1, Ba/F3 KIF5B-RET^G810R cells (Homo sapiens, UniProt P07949, G810R, cells depend on it); assay: Cytotoxicity assay (CellTiter-Glo), Ba/F3 KIF5B-RET G810R; details: CellTiter-Glo, 72 hrs; read-out: Ba/F3 KIF5B-RET^G810R IC50
T1 construct: Ba/F3 KIF5B-RET^G810R IC50 (nM); other: CellTiter-Glo, 72 hrs; fused on or other part: P33176 (Kinesin-1 heavy chain)
Protocol: (§1) Inhibitory effects of example compounds on the activity of Ba/F3 parental generation, Ba/F3 KIF5B-RET, Ba/F3 KIF5B-RET^V804M, Ba/F3 KIF5B-RET^V804L, Ba/F3 KIF5B-RET^G810R, Ba/F3 FLT3-ITD, Ba/F3 FLT3-ITD^D835Y, Ba/F3 FLT3-ITD^F691L cells were determined.
(§2) Materials and reagents: fetal bovine serum FBS (GIBCO, Cat #10099141), CellTiter-Glo® Luminescent Cell Viability Assay kit (Promega, Cat #G7572), 96-well black-wall clear flat-bottom plate (Corning®, Cat #3603).
(§3) 1. Cells in the logarithmic growth phase were harvested and counted with a […]. Cell viability was detected by a trypan blue exclusion method, ensuring that cell viability was 90% or more; 2. Cell concentration was adjusted to about 3000 cells/well; 90 μl of cell suspension was added to each well of the 96-well plate; 3. The cells in the 96-well plate were incubated overnight under the condition of 37° C., 5% CO2, and 95% humidity.
(§4) 1. A series of compound solutions were formulated by 3.16-fold serial dilution starting from a concentration of 10 μM, resulting in 9 concentrations. 10 μL of the compound solutions were added in each well of the 96-well plate seeded with cells in triplicate for each compound concentration; 2. The cells in the 96-well plate added with compounds were further incubated under the condition of 37° C., 5% CO2, and 95% humidity for 72 hrs, and then CTG analysis was carried out.
(§5) 1. CTG reagent was thawed, and the cell plate was equilibrated at room temperature for 30 minutes; 2. An equal volume […] of CTG solution was added to each well; 3. The cell plate was shaken on an orbital shaker for 5 minutes to lyse the cells; 4. The cell plate was placed at RT for 20 minutes to stabilize the luminescence signal; 5. Luminescence value was read.
(§6) Data were Analyzed by GraphPad Prism 5.0 Software, and Fitted by Nonlinear S-Curve Regression to obtain a dose-response curve, from which IC50 values were calculated.
(§7) Cell survival rate (%)=(luminescence value of drug to be tested−luminescence value of culture medium control)/(luminescence value of cell control−luminescence value of culture medium control)×100%.

[2] = tested on: Ba/F3 KIF5B-RET^G810R cells; assay: as above; details: ratio of Ba/F3 parental IC50 to Ba/F3 KIF5B-RET^G810R IC50
Protocol: as §1, §2, §3, §4, §5, §6, §7

Ba/F3 FLT3-ITD cells [3] = molecular target: T2, Ba/F3 FLT3-ITD cells (Homo sapiens, UniProt P36888, cells depend on it, form not given); assay: Cytotoxicity assay (CellTiter-Glo), Ba/F3 FLT3-ITD; details: CellTiter-Glo, 72 hrs; read-out: Ba/F3 FLT3-ITD IC50
T2 construct: Ba/F3 FLT3-ITD IC50 (nM); other: CellTiter-Glo, 72 hrs
T2 sequence (P36888 1-993): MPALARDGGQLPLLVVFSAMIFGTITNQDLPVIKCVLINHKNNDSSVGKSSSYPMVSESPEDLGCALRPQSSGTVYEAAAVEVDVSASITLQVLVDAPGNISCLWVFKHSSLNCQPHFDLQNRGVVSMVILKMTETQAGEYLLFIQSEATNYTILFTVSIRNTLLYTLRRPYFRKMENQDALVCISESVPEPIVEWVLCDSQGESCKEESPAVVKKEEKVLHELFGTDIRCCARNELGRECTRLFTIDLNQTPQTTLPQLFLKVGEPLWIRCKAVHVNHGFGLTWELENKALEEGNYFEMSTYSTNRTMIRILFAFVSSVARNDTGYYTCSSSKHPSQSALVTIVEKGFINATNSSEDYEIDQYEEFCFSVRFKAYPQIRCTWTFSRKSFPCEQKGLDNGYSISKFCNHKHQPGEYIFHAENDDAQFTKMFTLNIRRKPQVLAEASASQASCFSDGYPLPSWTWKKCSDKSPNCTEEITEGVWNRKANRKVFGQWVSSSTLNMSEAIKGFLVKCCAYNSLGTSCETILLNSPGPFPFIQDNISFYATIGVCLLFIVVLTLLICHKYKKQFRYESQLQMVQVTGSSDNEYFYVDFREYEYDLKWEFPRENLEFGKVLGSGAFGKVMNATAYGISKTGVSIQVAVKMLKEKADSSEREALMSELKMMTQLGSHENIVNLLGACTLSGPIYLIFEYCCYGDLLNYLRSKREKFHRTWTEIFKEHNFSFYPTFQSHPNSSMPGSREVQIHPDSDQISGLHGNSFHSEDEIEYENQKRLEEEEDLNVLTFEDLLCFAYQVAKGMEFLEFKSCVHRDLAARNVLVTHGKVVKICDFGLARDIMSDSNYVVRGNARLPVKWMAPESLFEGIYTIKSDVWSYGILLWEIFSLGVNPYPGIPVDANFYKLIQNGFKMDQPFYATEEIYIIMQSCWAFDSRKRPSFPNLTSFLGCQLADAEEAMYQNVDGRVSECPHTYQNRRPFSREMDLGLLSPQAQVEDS
Protocol: as §1, §2, §3, §4, §5, §6, §7

Ba/F3 FLT3-ITD cells [4] = assay: Cytotoxicity assay (CellTiter-Glo), Ba/F3 FLT3-ITD; details: ratio of Ba/F3 parental IC50 to Ba/F3 FLT3-ITD IC50
Protocol: as §1, §2, §3, §4, §5, §6, §7

[5] = tested on: Ba/F3 KIF5B-RET^V804L cells; assay: Cytotoxicity assay (CellTiter-Glo), Ba/F3 KIF5B-RET V804L; details: ratio of Ba/F3 parental IC50 to Ba/F3 KIF5B-RET^V804L IC50
Protocol: as §1, §2, §3, §4, §5, §6, §7

[6] = molecular target: T3, Ba/F3 KIF5B-RET^V804L cells (Homo sapiens, UniProt P07949, V804L, cells depend on it); assay: as above; details: CellTiter-Glo, 72 hrs; read-out: Ba/F3 KIF5B-RET^V804L IC50
T3 construct: Ba/F3 KIF5B-RET^V804L IC50 (nM); other: CellTiter-Glo, 72 hrs; fused on or other part: P33176 (Kinesin-1 heavy chain)
Protocol: as §1, §2, §3, §4, §5, §6, §7

T3 sequence (P07949 whole entry V804L, the tested form may be a part): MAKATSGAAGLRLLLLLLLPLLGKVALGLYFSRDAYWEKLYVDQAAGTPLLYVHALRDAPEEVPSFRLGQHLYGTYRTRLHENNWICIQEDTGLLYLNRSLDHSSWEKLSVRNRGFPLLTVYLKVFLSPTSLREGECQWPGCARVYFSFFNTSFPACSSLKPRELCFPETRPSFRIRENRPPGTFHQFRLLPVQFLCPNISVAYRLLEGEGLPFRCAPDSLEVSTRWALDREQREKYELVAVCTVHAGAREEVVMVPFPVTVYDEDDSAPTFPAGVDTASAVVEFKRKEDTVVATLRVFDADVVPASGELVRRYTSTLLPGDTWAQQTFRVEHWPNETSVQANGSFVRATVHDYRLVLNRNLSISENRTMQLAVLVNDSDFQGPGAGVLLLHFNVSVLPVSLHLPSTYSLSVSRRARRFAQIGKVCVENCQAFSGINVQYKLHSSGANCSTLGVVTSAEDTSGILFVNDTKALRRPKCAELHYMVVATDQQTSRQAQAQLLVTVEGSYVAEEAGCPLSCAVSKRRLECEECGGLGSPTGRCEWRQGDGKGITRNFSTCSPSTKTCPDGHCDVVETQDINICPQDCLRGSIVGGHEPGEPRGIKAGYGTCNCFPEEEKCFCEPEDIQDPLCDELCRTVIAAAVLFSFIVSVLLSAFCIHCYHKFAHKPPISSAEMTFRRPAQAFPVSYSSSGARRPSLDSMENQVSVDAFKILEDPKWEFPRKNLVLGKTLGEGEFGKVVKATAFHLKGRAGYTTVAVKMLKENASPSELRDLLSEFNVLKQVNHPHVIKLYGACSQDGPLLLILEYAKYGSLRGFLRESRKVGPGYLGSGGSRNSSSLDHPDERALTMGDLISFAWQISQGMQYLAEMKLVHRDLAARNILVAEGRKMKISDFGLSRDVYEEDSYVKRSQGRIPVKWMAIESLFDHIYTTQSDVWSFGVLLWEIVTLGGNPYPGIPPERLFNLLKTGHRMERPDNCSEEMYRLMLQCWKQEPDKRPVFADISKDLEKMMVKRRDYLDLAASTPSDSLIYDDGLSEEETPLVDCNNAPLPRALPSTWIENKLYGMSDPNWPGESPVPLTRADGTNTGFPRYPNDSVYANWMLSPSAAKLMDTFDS
T1 sequence (P07949 whole entry G810R, the tested form may be a part): as the sequence (P07949 whole entry V804L, the tested form may be a part) above, with L804V, G810R counted along it

| SMILES | GI50 [1] | Ba/F3 KIF5B-RET^G810R Selectivity on parental generation [2] | GI50 (Ba/F3 FLT3-ITD cells [3]) | Ba/F3 FLT3-ITD Selectivity on parental generation (Ba/F3 FLT3-ITD cells [4]) | Ba/F3 KIF5B-RET^V804L Selectivity on parental generation [5] | GI50 [6] |
| --- | --- | --- | --- | --- | --- | --- |
| CC(C)n1nc(-c2ccc(NC(=O)Nc3cc(C(F)(F)F)ccc3F)cc2)c2c(N)ncnc21 [AD80, reference compound] | 7.88 nM | 103.0 | 0.67 nM | 1211.9 | 89.7 | 9.05 nM |
| CC(C)n1nc(-c2ccc(CC(=O)Nc3cc(C(C)(C)C(F)(F)F)on3)cc2)c2c(N)ncnc21 [Compound T-1, 2-(4-(4-amino-1-isopropyl-1H-pyrazolo[3,4-d]pyrimidin-3-yl)phenyl)-N-(5-(1,1,1-trifluoro-2-methylprop-2-yl)isoxazol-3-yl)acetamide] | 2.64 nM | 613.8 | 0.31 nM | 5227.1 | 436.8 | 3.71 nM |
| CC(C)n1nc(-c2ccc(NC(=O)Nc3cc(C(C)(C)C(F)(F)F)on3)cc2)c2c(N)ncnc21 [Compound T-2, 1-(4-(4-amino-1-isopropyl-1H-pyrazolo[3,4-d]pyrimidin-3-yl)phenyl)-3-(5-(1,1,1-trifluoro-2-methylprop-2-yl)isoxazol-3-yl)urea] | 2.98 nM | 113.4 | 0.41 nM | 824.0 | 62.68 | 5.39 nM |
| CC(C)n1cc(-c2ccc(CC(=O)Nc3cc(C(C)(C)C(F)(F)F)on3)cc2)c2c(N)ncnc21 [Compound T-3, 2-(4-(4-amino-7-isopropyl-7H-pyrrolo[2,3-d]pyrimidin-5-yl)phenyl)-N-(5-(1,1,1-trifluoro-2-methylprop-2-yl)isoxazol-3-yl)acetamide] | 3.84 nM | 188.7 | 0.1 nM | 7244.4 | 199.6 | 3.63 nM |
| CC(C)c1nc(-c2ccc(CC(=O)Nc3cc(C(C)(C)C(F)(F)F)on3)cc2)c2c(N)nccn12 [Compound T-4, 2-(4-(8-amino-3-isopropylimidazo[1,5-a]pyrazin-1-yl)phenyl)-N-(5-(1,1,1-trifluoro-2-methylprop-2-yl)isoxazol-3-yl)acetamide] | 25.5 nM | 27.5 | 0.1 nM | 7011.0 | 22.2 | 31.6 nM |
| CC(C)c1cc(-c2ccc(CC(=O)Nc3cc(C(C)(C)C(F)(F)F)on3)cc2)c2c(N)ncnn12 [Compound T-5, 2-(4-(4-amino-7-isopropylpyrrolo[2,1-f][1,2,4]triazin-5-yl)phenyl)-N-(5-(1,1,1-trifluoro-2-methylprop-2-yl)isoxazol-3-yl)acetamide] | 13.6 nM | 351.7 | 1.89 nM | 2530.7 | 242.8 | 19.7 nM |
| CC(C)n1nc(-c2ccc(CC(=O)Nc3cc(C(C)(C)C(F)(F)F)on3)c(F)c2)c2c(N)ncnc21 [Compound T-6, 2-(4-(4-amino-1-isopropyl-1H-pyrazolo[3,4-d]pyrimidin-3-yl)-2-fluorophenyl)-N-(5-(1,1,1-trifluoro-2-methylprop-2-yl)isoxazol-3-yl)acetamide] | 2.92 nM | 717.6 | 0.4 nM | 5238.7 | 361.3 | 5.8 nM |
| CC(C)n1nc(-c2ccc(CC(=O)Nc3cc(C(C)(C)C(F)(F)F)on3)cn2)c2c(N)ncnc21 [Compound T-7, 2-(6-(4-amino-1-isopropyl-1H-pyrazolo[3,4-d]pyrimidin-3-yl)pyridin-3-yl)-N-(5-(1,1,1-trifluoro-2-methylprop-2-yl)isoxazol-3-yl)acetamide] | 6.92 nM | 47.4 | 0.1 nM | 3280.6 | 5.9 | 55.7 nM |
| CC(C)n1nc(-c2ccc(CC(=O)Nc3cc(C(C)(C)C(F)(F)F)no3)cc2)c2c(N)ncnc21 [Compound T-8, 2-(4-(4-amino-1-isopropyl-1H-pyrazolo[3,4-d]pyrimidin-3-yl)phenyl)-N-(3-(1,1,1-trifluoro-2-methylprop-2-yl)isoxazol-5-yl)acetamide] | 2.39 nM | 1538.5 | 0.25 nM | 14708 | 2403.3 | 1.53 nM |
| CC(C)n1nc(-c2ccc(CC(=O)Nc3cc(C(C)(C)C(F)(F)F)no3)cn2)c2c(N)ncnc21 [Compound T-9, 2-(6-(4-amino-1-isopropyl-1H-pyrazolo[3,4-d]pyrimidin-3-yl)pyridin-3-yl)-N-(3-(1,1,1-trifluoro-2-methylprop-2-yl)isoxazol-5-yl)acetamide] | 47.7 nM | 86.3 | 5.49 nM | 750.1 | 83.5 | 49.3 nM |
| CC(C)c1nc(-c2ccc(CC(=O)Nc3cc(C(C)(C)C(F)(F)F)on3)cc2)c2c(N)ncnn12 [Compound T-10, 2-(4-(4-amino-7-isopropylimidazo[5,1-f][1,2,4]triazin-5-yl)phenyl)-N-(5-(1,1,1-trifluoro-2-methylprop-2-yl)isoxazol-3-yl)acetamide] | 2.78 nM | 806.5 | 0.32 nM | 7006.3 | 121.8 | 18.4 nM |
